Results taken from paper PMC12566971, “Polyprenylated Acylphloroglucinols from Hypericum rochelii and Hypericum olympicum—Cytotoxic Effects on Non-Tumorigenic Cell Lines and Antibacterial Potential” (Pharmaceuticals, 2025).
Values after ≈ are worked out from the molar mass of the structure shown. Read-outs that look alike come from different tables or passages of the source.

Key:
CCL-1 cell line = test: Live-cell imaging with Hoechst for apoptosis detection; assay type: cell-based; conditions: positive control, 5 to 72 h
Experimental: Cell suspension was seeded in the same manner as for MTT, but 50 µL per well in 96-well clear bottom plates. […] For the hypertonic buffer, the exposure time was 2 h, and the cells were plated at twice the concentration as for the MTT and cytopathic tests in order to comply with the kit protocol.
At least two wells were seeded as replicates, and at least two photographs were taken for all samples and treatments, stained with dyes or not.

unspecified fibroblasts = conditions: up to 30 μg/mL for 24 h, ref [93]; cited from earlier work
breast cancer cell line = tested on: breast cancer cell line; design: method as in PMID 26865836; conditions: 24 h, ref [93]; cited from earlier work
Staphylococcus aureus [1] = test: MIC and MBC evaluation (broth microdilution, agar plate assay); assay type: cell-based; conditions: for MBC: read-out: Minimal bactericidal concentration (MBC), Staphylococcus aureus; for MBC/MIC ratio, S. aureus: bactericidal if ≤ 4, bacteriostatic if > 4
Experimental: (§1) The MIC and MBC assessment on the pathogenic bacteria and the candidate probiotic lactic acid bacteria was carried out by the broth microdilution assay (BMD) and the agar plate assay, respectively, as described in [4]. The metabolic (dehydrogenase) activity of the lactic acid bacteria was assessed as described in [4].
(§2) P. aeruginosa PAO1 ATCC 15692 was purchased from the American Type Cell Culture Collection (ATCC, Manassas, VA, USA). S. mutans DSM 20523 was bought from the German Collection of Microorganisms and Cell Cultures (DSMZ GmbH, Braunschweig, Germany). All other bacteria and strains were purchased as described in [4].

Enterococcus faecalis [2] = test: as above; assay type: cell-based
Experimental: as §1, §2

[3] = tested on: Methicillin-Resistant S. aureus (MRSA); test: as above; assay type: cell-based, Staphylococcus aureus
Experimental: as §1, §2

[4] = tested on: panel of cancer cell lines; design: method as in PMID 39454890; conditions: ref [48]; read-out: IC50 against a panel of cancer cell lines; cited from earlier work
CCL-1 = test: MTT assay for cytotoxicity; assay type: cell-based, murine
Experimental: (§3) The MTT assay was performed according to Annex C, ISO 10993-5 [56] as in [116]. The panel of non-tumorigenic cell lines consisted of one murine (CCL-1 fibroblasts, which are recommended as a standard for cytotoxicity evaluation in Annex C of ISO 10993-5 [56]) and four human cell lines—HaCaT (immortalized epidermal keratinocytes), HGF (gingival fibroblasts), HEK-293 (embryonic cells from kidney epithelium), and HEPG2 (hepatoblastoma). Although technically a cancer cell line, HEPG2 is non-tumorigenic and retains many hepatocyte-related features in its proteome and a high degree of morphological and functional differentiation, also being a stage one hepatoblastoma.
(§4) CCL-1 was purchased from ATCC and HaCaT and HGF were bought from CLS Cell Lines Service (GmbH, Eppelheim, Germany). HEK-293 and HEPG2 were obtained from DSMZ. The cell culture medium for HaCaT and HEPG2 was Dulbecco’s Modified Eagle Medium (DMEM) with 4.5 g/L glucose (DMEM-HA). For HGF it was DMEM/F-12 (DMEM-12-A, a 1:1 mixture of DMEM and Ham’s F-12 medium). The cell medium for CCL-1 and HEK-293 was Eagle’s Minimum Essential Medium (MEM) (MEM-A). Ten percent heat-inactivated fetal bovine serum (FBS) was added to all media but to the one for the CCL-1 cells, to which 10% heat-inactivated horse serum was added. All media were supplemented with 2 mM L-glutamine and Penicillin/Streptomycin (Pen/Strep, 100×). The cell culture media, sera, and additives were from Capricorn Scientific (Düsseldorf, Germany).
(§5) GraphPad Prism software version 9 (GraphPad Software Inc., San Diego, CA, USA) was used to calculate the IC50 values from the MTT assays as in [116], as well as the MTC values, and the ELISA standard curves. The MTC values are, according to ISO 10993-5, the maximum concentration at which at least 70% of the cells are viable (nonlin fit, range).

Staphylococcus aureus [5] = conditions: ref [4],[29]; cited from earlier work
HaCaT = test: MTT assay for cytotoxicity; assay type: cell-based, human
Experimental: as §3, §4, §5

HEPG2 = test: MTT assay for cytotoxicity; assay type: cell-based, human
Experimental: as §3, §4, §5

Streptococcus pyogenes = conditions: ref [4],[29]; cited from earlier work
Enterococcus faecalis [6] = conditions: ref [4],[29]; cited from earlier work
[7] = tested on: Methicillin-Resistant S. aureus (MRSA); conditions: ref [4],[29]; cited from earlier work
HEK-293 cells = test: Colony-forming unit assay; assay type: cell-based, human; conditions: for Percentage of colonies, HEK-293: untreated control = 100%
Experimental: (§6) The CFU was also performed according to ISO 10993-5 [56]. Briefly, the cell lines were seeded at a concentration like for the MTT assay in 6-well plates, treated with the chosen agents and left for a 48 h exposure. Then, the cells were trypsinized, and pre-calculated 20 to 100 µL from the cell suspension was added to a sterile Roswell Park Memorial Institute (RPMI) medium (RPMI-A, Capricorn Scientific), containing 20% of the respective cell culture medium for each cell line but with a final concentration of FBS and L-glutamine of 40–42% and 0.8–1.2 mM, respectively, 0.2% NaHCO3 (S6297, Merck Sigma-Aldrich, Saint Louis, MI, USA), and 0.8% methylcellulose (M0512, Merck Sigma-Aldrich) for viscosity. The viscous cell solution was vortexed for 10 s and dispensed in an equal number of cells per well in 6-well plates (1.2 mL per well) in triplicate for each concentration of treatment. HaCaT and HEK-293 were seeded at a concentration of 2500 cells per mL, CCL-1 and HEPG2—2000 cells per mL, and HGF—1000 cells per mL. The plates were incubated for 6 to 10 days, and when the colonies reached 20 to 50 cells per colony, 100 µL MTT salt solution was added to each well. After half an hour, the stained colonies were counted manually using a microscope.

HaCaT cells = test: Colony-forming unit assay; assay type: cell-based, human; conditions: for Colonies per well for HaCaT cells: mean of three wells; for Percentage of colonies, HaCaT: untreated control = 100%
Experimental: as §6

[8] = tested on: Human embryonic kidney-293 (HEK-293); test: MTT assay for cytotoxicity; assay type: cell-based
Experimental: as §3, §4, §5

[9] = tested on: Human gingival fibroblasts (HGF); test: MTT assay for cytotoxicity; assay type: cell-based
Experimental: as §3, §4, §5

CCL-1 cells = test: Colony-forming unit assay; assay type: cell-based, murine; conditions: for Percentage of colonies, CCL-1: untreated control = 100%
Experimental: as §6

[10] = bactericidal if ≤ 4, bacteriostatic if > 4

For `COc1cccc2c1C(=O)c1c(O)c3c(c(O)c1C2=O)C[C@@](O)(C(C)=O)C[C@@H]3O[C@H]1C[C@H](N)[C@H](O)[C@H](C)O1` [daunorubicin, reference compound], which “Highly condensed and shrunken nuclei (marker of apoptosis)” value (CCL-1 cell line) is on record?
Its value is “not in samples treated with daunorubicin”.

Which “Effect on cell survival of fibroblasts” value (unspecified fibroblasts) does the source give for `Cc1cc(O)c2c(=O)c3c(O)cc(O)c4c5c(O)cc(O)c6c(=O)c7c(O)cc(C)c8c1c2c(c34)c(c78)c65` [hypericin] here?
The value was “did not have a significant effect”.

What about the “IC50 for a breast cancer cell line” value (breast cancer cell line) of the same compound?
Its value is 5 µg/mL.

With `N.N.[Cl][Pt][Cl]` [cisplatin] as the compound, how does the “IC50 for a breast cancer cell line” value (breast cancer cell line) read?
The value was 20 µg/mL.

Which MBC (Staphylococcus aureus [1]; Staphylococcus aureus) does the source give for `CNC(C)C1CCC(N)C(OC2C(N)CC(N)C(OC3OCC(C)(O)C(NC)C3O)C2O)O1` (stereo not drawn) [Gentamicin, reference compound] here?
Its MBC is 1.9 µg/mL.

And the “MBC/MIC ratio, S. aureus” value (Staphylococcus aureus [1])?
Its value is 8 ^5.

What about the MBC (Enterococcus faecalis [2]; Enterococcus faecalis) of the same compound?
The MBC was 72 µg/mL (≈ 151 µM).

And the “MBC/MIC ratio, E. faecalis” value (Enterococcus faecalis [2]; [10])?
The value was 9.

And the MBC ([3]; Staphylococcus aureus, MRSA)?
Its MBC is 2.5 µg/mL (≈ 5.23 µM).

What about the “MBC/MIC ratio, MRSA” value [3, 10] of the same compound?
Its value is 20.

Which IC50 [4] does the source give for `O=c1c(-c2c(O)cc(O)c3c(=O)cc(-c4ccc(O)cc4)oc23)c(-c2ccc(O)cc2)oc2cc(O)cc(O)c12` [I3-II8-biapigenin] here?
The IC50 was 107 to 198 µM.

What does the source list for `CC(C)=CCC[C@]1(C)[C@@H](CC=C(C)C)C[C@]2(C)C(=O)C(CC=C(C)C)=C(O)[C@@]1(C(=O)C(C)C)C2=O` [Hyperpolyphyllirin/hyperibine J]?
Maximum tolerated concentration (MTC), CCL-1 (CCL-1): 4.56 µg/mL; IC50, CCL-1 (CCL-1; MTT assay): 7.07 µg/mL (≈ 14.6 µM); IC50 (CCL-1; converted to µM): 14.7 µM; MIC on bacteria, S. aureus (Staphylococcus aureus [5]): 2 µg/mL (≈ 4.14 µM); Maximum tolerated concentration (MTC), HaCaT (HaCaT): 0.75 µg/mL; IC50, HaCaT (HaCaT; MTT assay): 2.29 µg/mL (≈ 4.74 µM); IC50 (HaCaT; converted to µM): 4.74 µM; Maximum tolerated concentration (MTC), HEPG2 (HEPG2): 5.13 µg/mL; IC50, HEPG2 (HEPG2; MTT assay): 14.33 µg/mL (≈ 29.7 µM); IC50 (HEPG2; converted to µM): 29.7 µM; MIC on bacteria, S. pyogenes (Streptococcus pyogenes): 31 µg/mL (≈ 64.2 µM); Minimal bactericidal concentration (MBC), Staphylococcus aureus (Staphylococcus aureus [1]): 94 µg/mL (≈ 195 µM); MBC/MIC ratio, S. aureus (Staphylococcus aureus [1]): 47; MBC (Staphylococcus aureus [1]): 194 µM; MIC on bacteria, E. faecalis (Enterococcus faecalis [6]): 8 µg/mL (≈ 16.6 µM); MIC on bacteria, MRSA [7]: 8 µg/mL (≈ 16.6 µM); Colonies per well for HEK-293 cells (HEK-293 cells; 1/2 × IC50, 48 h exposure): 110; Percentage of colonies, HEK-293 (HEK-293 cells; 1/2 × IC50): 89%; Colonies per well for HEK-293 cells (HEK-293 cells; 2 × IC50, 48 h exposure): 67; Percentage of colonies, HEK-293 (HEK-293 cells; 2 × IC50): 54%; Colonies per well for HEK-293 cells (HEK-293 cells; IC50, 48 h exposure): 91; Percentage of colonies, HEK-293 (HEK-293 cells; IC50): 73%; Colonies per well for HaCaT cells (HaCaT cells; 1/2 × IC50, 48 h exposure): 143; Percentage of colonies, HaCaT (HaCaT cells; 1/2 × IC50): 259%; Colonies per well for HaCaT cells (HaCaT cells; 2 × IC50, 48 h exposure): 58; Percentage of colonies, HaCaT (HaCaT cells; 2 × IC50): 105%; Colonies per well for HaCaT cells (HaCaT cells; IC50, 48 h exposure): 133; Percentage of colonies, HaCaT (HaCaT cells; IC50): 241%; Maximum tolerated concentration (MTC), HEK-293 [8]: 0.46 µg/mL; IC50, HEK-293 ([8]; MTT assay): 0.79 µg/mL (≈ 1.64 µM); IC50 ([8]; converted to µM): 1.64 µM; Maximum tolerated concentration (MTC), HGF [9]: 10.47 µg/mL; IC50, HGF ([9]; MTT assay): 12.41 µg/mL (≈ 25.7 µM); IC50 ([9]; converted to µM): 25.7 µM; Colonies per well for CCL-1 cells (CCL-1 cells; 1/2 × IC50, 48 h exposure): 162; Percentage of colonies, CCL-1 (CCL-1 cells; 1/2 × IC50): 111%; Colonies per well for CCL-1 cells (CCL-1 cells; 2 × IC50, 48 h exposure): 113; Percentage of colonies, CCL-1 (CCL-1 cells; 2 × IC50): 77%; Colonies per well for CCL-1 cells (CCL-1 cells; IC50, 48 h exposure): 116; Percentage of colonies, CCL-1 (CCL-1 cells; IC50): 79%
